Consider eleven compounds from patent US20030171293A1, “Neuropeptide receptor and uses thereof” (Pfizer Inc., priority 2002, published 2003).

Test [1] addresses T1, receptor MRGX2 (Homo sapiens, UniProt Q96LB1).
T1 construct: expressed in transfected cells; host or cells: host line such as HEK293 or CHO-K1, stably expressing Galpha15/Gqi-5
T1 sequence (Q96LB1 1-330): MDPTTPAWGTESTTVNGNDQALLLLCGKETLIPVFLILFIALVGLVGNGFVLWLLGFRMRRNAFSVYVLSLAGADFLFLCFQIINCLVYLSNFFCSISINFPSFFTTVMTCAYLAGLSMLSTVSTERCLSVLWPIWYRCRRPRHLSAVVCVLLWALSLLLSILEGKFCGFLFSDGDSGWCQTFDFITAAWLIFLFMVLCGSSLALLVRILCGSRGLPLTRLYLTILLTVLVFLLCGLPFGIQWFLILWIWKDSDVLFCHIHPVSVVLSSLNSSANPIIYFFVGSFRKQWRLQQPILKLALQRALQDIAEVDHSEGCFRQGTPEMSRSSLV
Kind of test: Functional assay measuring intracellular calcium mobilisation (FLIPR). Type of test: cell-based. Particulars: for EC50: Preliminary EC50 data for receptor MRGX2, transiently transfected cells, Fluo3 calcium response; for response of MRGX2 receptor: at a concentration of 1 μM. A general note: Calcium flux is commonly read through the fluorescence of an indicator in the cells.
Method: 5×10^6 cells of a suitable host cell line, chosen to express a low number of endogenous receptors (e.g. HEK293 or CHO-K1) and engineered to stably express Gα15/Gqi-5, were transiently transfected with 7.5 μg of cDNA encoding receptor MRGX2 in a suitable mammalian cell expression vector, or vector alone, using Lipofectamine Plus® reagent (Gibco BRL) as per the manufacturer's protocol. If the cells were intended for a ligand binding assay or microphysiometry, they were incubated for 24-72 hours post transfection, and then harvested. If a microtitre plate-based assay was intended, the cells were detached from the flask using Trypsin/EDTA solution (LTI) 24 hours post transfection, and seeded into e.g. a black sided, Poly-D-lysine-treated, 96-well plate (Becton Dickinson) at 5×10^4 cells/well density. The plates were left overnight to allow the cells to adhere to the bottom of the wells.
Fluorescence Imaging Plate Reader (FLIPR®) technology was employed as a means to detect activation of receptor MRGX2 by various potential GPCR agonists.
24 hrs post-transfection, the cells were detached from the flask using Trypsin/EDTA solution (LTI) and seeded into a black sided, Poly-D-lysine-treated, 96-well plate (Becton Dickinson) at 5×10^4 cells/well density. The plates were left overnight to allow the cells to adhere to the bottom of the wells. The medium was removed from the cells and replaced with 100 μl warm (37° C.) dye loading solution (50 μg Fluo3 (Molecular Probes) in 20 μl DMSO+20% pluronic acid in DMSO, added to 11 ml Dulbecco's Modified Eagles Medium containing 1× Probenecid (100× Probenecid—0.71 g Probenecid was dissolved in 5 ml 1 M NaOH and 5 ml Dulbeccos' Phosphate Buffered Saline (PBS), per plate; Probenecid (Molecular Probes) inhibits activity of the anion transport protein, thus improving dye loading). The plates were then incubated for 1 hr at 37° C. Plates were subsequently washed with 250 μl of wash buffer per well (5 ml 100× Probenecid stock+495 ml PBS, pH 7.4) 4 times. The plates were returned to the 37° C./5%CO2 incubator for 30 mins prior to processing within the FLIPR® instrument. The FLIPR® processing involved reading the fluorescence for all samples for 2 minutes; during this time the fluorescence baseline was determined for 10 seconds. The desired amount of compounds (i.e. potential GPCR agonists) was then automatically transferred to the wells and the fluorescence was continuously monitored for the remainder of the time. All compounds were diluted in wash buffer.

The subject of test [2] is guinea pig ileum. Particulars: GPI assay; cited from earlier work.
Test [3] concerns food intake. Particulars: i.c.v., free feeding rats; maximal response at 1 nmol dose; cited from earlier work.

Where a SMILES comes first, the peptide text is derived from it. Bridges are numbered along the chain shown (N, C = ends). [ ]: non-standard residue; d: D form. dTrp(2-Me) = Cc1[nH]c2ccccc2c1C[C@@H](N)C(=O)O; d2Nal = N[C@H](Cc1ccc2ccccc2c1)C(=O)O; Nle = CCCC[C@H](N)C(=O)O A value given as a limit tells only on which side of the number the result lay.

As for `NCCC[C@@H](NC(=O)[C@@H]1CCCN1C(=O)[C@@H]1CSSCCC(=O)N[C@@H](Cc2ccc(O)cc2)C(=O)N[C@@H](Cc2ccccc2)C(=O)N[C@@H](CCC(N)=O)C(=O)N[C@@H](CC(N)=O)C(=O)N1)C(=O)NCC(N)=O` [(Deamino-Cysl,D-Orn^8) Vasopressin], the EC50 in test [1] is above 10 µM.
For `CC[C@H](C)[C@H](NC(=O)[C@H](CCCNC(=N)N)NC(=O)[C@H](CCCNC(=N)N)NC(=O)[C@H](CC(C)C)NC(=O)[C@H](Cc1ccccc1)NC(=O)CNC(=O)CNC(=O)[C@@H](N)Cc1ccc(O)cc1)C(=O)N[C@@H](CCCNC(=N)N)C(=O)N1CCC[C@H]1C(=O)N[C@@H](CCCCN)C(=O)N[C@@H](CC(C)C)C(=O)N[C@@H](CCCCN)C(=O)N[C@@H](Cc1c[nH]c2ccccc12)C(=O)N[C@@H](CC(=O)O)C(=O)N[C@@H](CC(N)=O)C(=O)N[C@@H](CCC(N)=O)C(=O)O` [Dynorphin A], the EC50 in test [1] is 1.85 µM. Besides, in test [2], the “potency relative to [Leu]-enkephalin” value is reported as 700 times, the “potency relative to normorphine” value was “about 200 times” and the “potency relative to β-endorphin” value is 50 times.
With `CC(=O)N[C@H]1CSSC[C@@H](C(=O)N2CCC[C@H]2C(=O)N2CCC[C@H]2C(=O)N[C@@H](CCCCN)C(=O)N[C@@H](CC(=O)O)C(N)=O)NC(=O)CNC(=O)[C@H](Cc2c[nH]c3ccccc23)NC(=O)[C@H](CCCNC(=N)N)NC(=O)[C@@H](Cc2ccc3ccccc3c2)NC(=O)[C@H](Cc2c[nH]cn2)NC(=O)[C@H](CCC(=O)O)NC1=O` [HS014] (Ac-CEH[d2Nal]RWGCPPKD-NH2; disulfide 1-8; N-terminus and C-terminus assumed), the half-maximal effective concentration (EC50) in test [1] was above 10 µM.
For `CCCC[C@@H]1NC(=O)[C@@H](NC(C)=O)CSSC[C@@H](C(N)=O)NC(=O)CNC(=O)[C@H](Cc2c[nH]c3ccccc23)NC(=O)[C@H](CCCNC(=N)N)NC(=O)[C@@H](Cc2ccc3ccccc3c2)NC(=O)[C@H](Cc2c[nH]cn2)NC(=O)[C@H](CCCNC(=N)N)NC1=O` [HS024, (Acetyl-Cys^3,Nle^4,Arg^5,D-2-Nal^7,Cys^11)-α-MSH (3-11) amide] (Ac-C[Nle]RH[d2Nal]RWGC-NH2; disulfide 1-9 (inferred)), the “effect on food intake” value in test [3] is recorded as “dose dependant increase in food intake”.
Take `Cc1[nH]c2ccccc2c1C[C@@H](NC(=O)[C@@H](N)Cc1cnc[nH]1)C(=O)N[C@@H](C)C(=O)N[C@@H](Cc1c[nH]c2ccccc12)C(=O)N[C@H](Cc1ccccc1)C(=O)N[C@@H](CCCCN)C(N)=O` [Hexarelin] (H-H[dTrp(2-Me)]AW[dF]K-NH2): in test [1], the EC50 came out at 9.5 µM.
With `CC(C)C[C@H](NC(=O)CNC(=O)[C@H](CCC(=O)O)NC(=O)CNC(=O)[C@H](C)N)C(=O)N[C@@H](CC(N)=O)C(=O)N[C@@H](CO)C(=O)N[C@@H](CCC(N)=O)C(=O)N[C@@H](Cc1ccccc1)C(=O)N[C@@H](Cc1c[nH]c2ccccc12)C(=O)N[C@@H](CO)C(=O)N[C@@H](CC(C)C)C(=O)N[C@@H](C)C(=O)N[C@@H](C)C(=O)N1CCC[C@H]1C(=O)N[C@@H](CCC(N)=O)C(=O)N[C@@H](CCCNC(=N)N)C(=O)N[C@@H](Cc1ccccc1)C(N)=O` [NPAF] (H-AGEGLNSQFWSLAAPQRF-NH2; N-terminus assumed), the EC50 in test [1] was above 10 µM.
The same measure, in the same setting: under `CC(C)C[C@H](NC(=O)[C@@H](N)CO)C(=O)N[C@@H](C)C(=O)N[C@@H](C)C(=O)N1CCC[C@H]1C(=O)N[C@@H](CCC(N)=O)C(=O)N[C@@H](CCCNC(=N)N)C(=O)N[C@@H](Cc1ccccc1)C(N)=O` [NPSF] (H-SLAAPQRF-NH2) stands above 10 µM; under `CC(C)C[C@H](NC(=O)[C@H](CCCCN)NC(=O)[C@H](CCCN=C(N)N)NC(=O)[C@H](C)NC(=O)[C@H](CO)NC(=O)[C@H](CCCCN)NC(=O)[C@H](CCCN=C(N)N)NC(=O)[C@H](C)NC(=O)CNC(=O)[C@@H](NC(=O)[C@H](Cc1ccccc1)NC(=O)CNC(=O)CNC(=O)[C@@H](N)Cc1ccccc1)[C@@H](C)O)C(=O)N[C@@H](C)C(=O)N[C@@H](CC(N)=O)C(=O)N[C@@H](CCC(N)=O)C(=O)O` [Nociceptin], above 10 µM; under `C[C@@H](O)[C@@H]1NC(=O)[C@H](CCCCN)NC(=O)[C@@H](Cc2c[nH]c3ccccc23)NC(=O)[C@H](Cc2ccccc2)NC(=O)[C@@H](NC(=O)[C@H](N)Cc2ccccc2)CSSC[C@@H](C(=O)N[C@H](CO)[C@@H](C)O)NC1=O` [Octreotide], above 10 µM.
As to α-MSH, the “response of MRGX2 receptor” value in test [1] is recorded as “responds”.
In the case of γ-MSH, in test [1], the “response of MRGX2 receptor” value is reported as “responds”.

By EC50 is commonly meant the concentration that produces a half-maximal response.
